Data: patent US9695178B2, “6-(2-pyridyl)-7,8-dihydro-5H-pyrido[4,3-D]pyrimidine analogs as hedgehog pathway signaling inhibitors and therapeutic applications thereof” (Suzhou Yunxuan Yiyao Keji Youxian Gongsi, priority 2013, dated 2017)

target: Smo (Homo sapiens, UniProt Q99835); assay: Bodipy-Cyclopamine Binding Assay (confirmation assay), Hek293-SMO cells
Sequence (Q99835 28-787): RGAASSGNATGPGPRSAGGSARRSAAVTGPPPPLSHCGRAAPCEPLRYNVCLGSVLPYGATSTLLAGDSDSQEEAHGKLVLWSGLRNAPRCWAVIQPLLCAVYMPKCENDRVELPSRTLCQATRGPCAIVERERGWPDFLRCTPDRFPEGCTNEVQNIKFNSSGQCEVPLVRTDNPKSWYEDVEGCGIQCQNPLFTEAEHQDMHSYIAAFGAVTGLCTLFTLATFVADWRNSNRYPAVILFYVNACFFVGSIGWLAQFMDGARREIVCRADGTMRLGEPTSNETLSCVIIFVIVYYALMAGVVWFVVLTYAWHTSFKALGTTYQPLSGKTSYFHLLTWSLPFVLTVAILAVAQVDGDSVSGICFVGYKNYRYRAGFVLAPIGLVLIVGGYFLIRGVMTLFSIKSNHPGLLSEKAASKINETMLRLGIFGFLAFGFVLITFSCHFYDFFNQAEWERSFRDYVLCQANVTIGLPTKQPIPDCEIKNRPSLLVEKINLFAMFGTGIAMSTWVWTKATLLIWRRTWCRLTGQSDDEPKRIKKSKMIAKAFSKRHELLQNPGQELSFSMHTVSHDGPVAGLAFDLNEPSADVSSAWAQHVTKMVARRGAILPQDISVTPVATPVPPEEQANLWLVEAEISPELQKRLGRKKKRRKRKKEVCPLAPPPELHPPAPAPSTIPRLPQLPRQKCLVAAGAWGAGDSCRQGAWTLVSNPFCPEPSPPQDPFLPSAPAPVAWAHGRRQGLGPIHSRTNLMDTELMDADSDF
Procedure: The confirmation assay is based on Bodipy-Cyclopamine Binding Assay:
Bodipy-Cyclopamine binding assay is a fluorescence based assay used to analysis the binding of Smo agonists. […] Bodipy-Cyclopamine was purchased from Toronto Research Chemicals and dissolved in methanol.
Hek293-SMO cells were plated in 96-well-plate (3340, Corning), the final cell concentration is 15,000 cells/well in 100 ul 1% serum-containing DMEM. The plates were incubated in 37 degree for additional 48 hours.
Hek293-SMO plate were washed with PBS and fixed with 4% paraformaldehyde (PFA)/PBS for 20 min at room temperature. After removing the PFA buffer, the cells were incubated with DAPI/PBS (5 ug/mL) for 10 min and followed by twice wash with PBS. After wash, cells were incubated for 2 h at room temperature in binding buffer (HBSS W/O Ca^2+ and Mg^2+) containing 100 nM bodipy-cyclopamine and compounds over a range of concentrations from 0-10 μM for competitive binding. After incubation, the cells were washed twice with the PBS. The fluorescence images were automatically captured and analyzed by a high content fluorescence imaging system (Arrayscan VTI, Thermo). GDC-0449 was used as reference compound to normalize the data. IC50 values were calculated with GraphPad Prism software using the sigmoidal dose-response function. The Ki was calculated following the Cheng-Prusoff equation, as Ki=IC50/[1+[bodipy-cyclopamine]/Kd)].

Compound | IC50 [nM]
Cc1cnc(-c2cc(N3CCc4nc(N5CCC(O)CC5)sc4C3)ncc2Cl)c(C)c1 [Compound A-32, 1-(5-(5′-chloro-3,5-dimethyl-2,4′-bipyridin-2′-yl)-4,5,6,7-tetrahydro-thiazolo-[5,4-c]pyridin-2-yl)piperidin-4-ol] | 86.7
Cc1cnc(-c2cc(N3CCc4nc(N5CC(C)OC(C)C5)sc4C3)ncc2Cl)c(C)c1 (stereo not shown) [Compound A-33, 4-(5-(5′-chloro-3,5-dimethyl-2,4′-bipyridin-2′-yl)-4,5,6,7-tetrahydro-thiazolo-[5,4-c]pyridin-2-yl)-2,6-dimethyl-morpholine] | 447
Cc1cnc(-c2cc(N3CCc4nc(N5CCCC5)sc4C3)ncc2Cl)c(C)c1 [Compound A-34, 5-(5′-chloro-3,5-dimethyl-2,4′-bipyridin-2′-yl)-2-(pyrrolidin-1-yl)-4,5,6,7-tetrahydro-thiazolo-[5,4-c]pyridine] | 371
CCNc1nc2c(s1)CN(c1cc(-c3ncc(C)cc3C)c(Cl)cn1)CC2 [Compound A-35, 5-(5′-chloro-3,5-dimethyl-2,4′-bipyridin-2′-yl)-N-ethyl-4,5,6,7-tetrahydro-thiazolo-[5,4-c]pyridin-2-amine] | 260
Cc1cnc(-c2cc(N3CCc4nc(-n5cccn5)sc4C3)ncc2Cl)c(C)c1 [Compound A-36, 5-(5′-chloro-3,5-dimethyl-2,4′-bipyridin-2′-yl)-2-(1H-pyrazol-1-yl)-4,5,6,7-tetrahydro-thiazolo-[5,4-c]pyridine] | 565
CCOC(=O)Nc1nc2c(s1)CN(c1cc(-c3ncc(C)cc3C)c(Cl)cn1)CC2 [Compound A-37, ethyl 5-(5′-chloro-3,5-dimethyl-2,4′-bipyridin-2′-yl)-4,5,6,7-tetrahydro-thiazolo-[5,4-c]pyridin-2-ylcarbamate] | 487
Cc1cnc(-c2cc(N3CCc4nc(NC(=O)C(F)(F)F)sc4C3)ncc2Cl)c(C)c1 [Compound A-38, N-(5-(5′-chloro-3,5-dimethyl-2,4′-bipyridin-2′-yl)-4,5,6,7-tetrahydro-thiazolo-[5,4-c]pyridin-2-yl)-2,2,2-trifluoro-acetamide] | > 1000
Cc1cnc(-c2cc(N3CCc4nc(NC(=O)CCN5CCOCC5)sc4C3)ncc2Cl)c(C)c1 [Compound A-39, N-(5-(5′-chloro-3,5-dimethyl-2,4′-bipyridin-2′-yl)-4,5,6,7-tetrahydro-thiazolo-[5,4-c]pyridin-2-yl)-3-morpholino-propan-amide] | 134
Cc1cnc(-c2cc(N3CCc4nc(NC(=O)CCN5CCCCC5)sc4C3)ncc2Cl)c(C)c1 [Compound A-40, N-(5-(5′-chloro-3,5-dimethyl-2,4′-bipyridin-2′-yl)-4,5,6,7-tetrahydro-thiazolo-[5,4-c]pyridin-2-yl)-3-(piperidin-1-yl)propanamide] | 151
Cc1cnc(-c2cc(N3CCc4nc(NC(=O)CCN(C)C)sc4C3)ncc2Cl)c(C)c1 [Compound A-41, N-(5-(5′-chloro-3,5-dimethyl-2,4′-bipyridin-2′-yl)-4,5,6,7-tetrahydro-thiazolo-[5,4-c]pyridin-2-yl)-3-(dimethyl-amino)-propanamide] | 173
CCNC(=O)Nc1nc2c(s1)CN(c1cc(-c3ncc(C)cc3C)c(Cl)cn1)CC2 [Compound A-42, 1-(5-(5′-chloro-3,5-dimethyl-2,4′-bipyridin-2′-yl)-4,5,6,7-tetrahydro-thiazolo-[5,4-c]pyridin-2-yl)-3-ethylurea] | 190
Cc1cnc(-c2cc(N3CCc4nc(NC(=O)NC(C)C)sc4C3)ncc2Cl)c(C)c1 [Compound A-43, 1-(5-(5′-chloro-3,5-dimethyl-2,4′-bipyridin-2′-yl)-4,5,6,7-tetrahydro-thiazolo-[5,4-c]pyridin-2-yl)-3-isopropylurea] | 201
C=CC(=O)Nc1nc2c(s1)CN(c1cc(-c3ncc(C)cc3C)c(Cl)cn1)CC2 [Compound A-44, N-(5-(5′-chloro-3,5-dimethyl-2,4′-bipyridin-2′-yl)-4,5,6,7-tetrahydro-thiazolo-[5,4-c]pyridin-2-yl)acrylamide] | > 1000
Cc1cnc(-c2cc(N3CCc4nc(NS(C)(=O)=O)sc4C3)ncc2Cl)c(C)c1 [Compound A-45, N-(5-(5′-chloro-3,5-dimethyl-2,4′-bipyridin-2′-yl)-4,5,6,7-tetrahydro-thiazolo-[5,4-c]pyridin-2-yl)methane-sulfon-amide] | > 1000
Cc1cnc(-c2cc(N3CCc4nc(OC5CCC5)sc4C3)ncc2Cl)c(C)c1 [Compound A-47, 5-(5′-chloro-3,5-dimethyl-2,4′-bipyridin-2′-yl)-2-cyclobutoxy-4,5,6,7-tetrahydro-thiazolo-[5,4-c]pyridine] | 88.3
Cc1cnc(-c2cc(N3CCc4nc(Nc5ccccc5)sc4C3)ncc2Cl)c(C)c1 [Compound A-48, 5-(5′-chloro-3,5-dimethyl-2,4′-bipyridin-2′-yl)-N-phenyl-4,5,6,7-tetrahydro-thiazolo-[5,4-c]pyridin-2-amine] | 330
CNc1ncc2c(n1)CCN(c1cc(-c3ncc(C)cc3C)c(Cl)cn1)C2 [Compound A-50, 6-(5′-chloro-3,5-dimethyl-2,4′-bipyridin-2′-yl)-N-methyl-5,6,7,8-tetrahydro-pyrido-[4,3-d]pyrimidin-2-amine] | 232
CSc1ncc2c(n1)CCN(c1cc(-c3ncc(C)cc3C)c(Cl)cn1)C2 [Compound A-63, 6-(5′-chloro-3,5-dimethyl-2,4′-bipyridin-2′-yl)-2-(methylthio)-5,6,7,8-tetrahydro-pyrido-[4,3-d]pyrimidine] | 87.6
Cc1cnc(-c2cc(N3CCc4nc(S(C)(=O)=O)ncc4C3)ncc2Cl)c(C)c1 [Compound A-64, 6-(5′-chloro-3,5-dimethyl-2,4′-bipyridin-2′-yl)-2-(methyl-sulfonyl)-5,6,7,8-tetrahydro-pyrido-[4,3-d]pyrim-idine] | 500
Cc1cnc(-c2cc(N3CCc4nc(NCC5CC5)ncc4C3)ncc2Cl)c(C)c1 [Compound A-65, 6-(5′-chloro-3,5-dimethyl-2,4′-bipyridin-2′-yl)-N-(cyclopropyl-meth-yl)-5,6,7,8-tetrahydro-pyrido-[4,3-d]pyrimidin-2-amine] | 85.3
CCOc1ncc2c(n1)CCN(c1cc(-c3ncc(C)cc3C)c(Cl)cn1)C2 [Compound A-67, 6-(5′-chloro-3,5-dimethyl-2,4′-bipyridin-2′-yl)-2-ethoxy-5,6,7,8-tetrahydro-pyrido-[4,3-d]pyrim-idine] | 207

Other lines, results leading:

IC50 [nM] | Compound
16.8 | CCNc1ncc2c(n1)CCN(c1cc(-c3ncc(C)cc3C)c(Cl)cn1)C2 [Compound A-51, 6-(5′-chloro-3,5-dimethyl-2,4′-bipyridin-2′-yl)-N-ethyl-5,6,7,8-tetrahydro-pyrido-[4,3-d]pyrimidin-2-amine]
5.4 | Cc1cnc(-c2cc(N3CCc4nc(NC5CC5)ncc4C3)ncc2Cl)c(C)c1 [Compound A-52, 6-(5′-chloro-3,5-dimethyl-2,4′-bipyridin-2′-yl)-N-cyclopropyl-5,6,7,8-tetrahydropyrido[4,3-d]pyrimidin-2-amine]
24.9 | Cc1cnc(-c2cc(N3CCc4nc(N5CCCC5)ncc4C3)ncc2Cl)c(C)c1 [Compound A-53, 6-(5′-chloro-3,5-dimethyl-2,4′-bipyridin-2′-yl)-2-(pyrrolidin-1-yl)-5,6,7,8-tetrahydro-pyrido-[4,3-d]pyrimidine]
22.9 | Cc1cnc(-c2cc(N3CCc4nc(N(C)CCO)ncc4C3)ncc2Cl)c(C)c1 [Compound A-54, 2-((6-(5′-chloro-3,5-dimethyl-2,4′-bipyridin-2′-yl)-5,6,7,8-tetrahydro-pyrido-[4,3-d]pyrimidin-2-yl)(methyl)-amino)ethanol]
5.1 | Cc1cnc(-c2cc(N3CCc4nc(N5CCC(O)CC5)ncc4C3)ncc2Cl)c(C)c1 [Compound A-55, 1-(6-(5′-chloro-3,5-dimethyl-2,4′-bipyridin-2′-yl)-5,6,7,8-tetrahydro-pyrido-[4,3-d]pyrimidin-2-yl)piperidin-4-ol]
48.7 | Cc1cnc(-c2cc(N3CCc4nc(N5CCOCC5)ncc4C3)ncc2Cl)c(C)c1 [Compound A-56, 4-(6-(5′-chloro-3,5-dimethyl-2,4′-bipyridin-2′-yl)-5,6,7,8-tetrahydro-pyrido-[4,3-d]pyrimidin-2-yl)morpholine]
11.1 | Cc1cnc(-c2cc(N3CCc4nc(N5CC(C)NC(C)C5)ncc4C3)ncc2Cl)c(C)c1 (stereo not shown) [Compound A-57, 6-(5′-chloro-3,5-dimethyl-2,4′-bipyridin-2′-yl)-2-(3,5-dimethyl-piperazin-1-yl)-5,6,7,8-tetrahydro-pyrido-[4,3-d]pyrimidine]
59.8 | Cc1cnc(-c2cc(N3CCc4nc(N(C)S(C)(=O)=O)ncc4C3)ncc2Cl)c(C)c1 [Compound A-58, N-(6-(5′-chloro-3,5-dimethyl-2,4′-bipyridin-2′-yl)-5,6,7,8-tetrahydro-pyrido-[4,3-d]pyrim-idin-2-yl)-N-methylmethane-sulfonamide]
48.8 | Cc1cnc(-c2cc(N3CCc4nc(-n5cccn5)ncc4C3)ncc2Cl)c(C)c1 [Compound A-59, 6-(5′-chloro-3,5-dimethyl-2,4′-bipyridin-2′-yl)-2-(1H-pyrazol-1-yl)-5,6,7,8-tetrahydro-pyrido-[4,3-d]pyrim-idine]
18 | Cc1cnc(-c2cc(N3CCc4nc(NC(C)C)ncc4C3)ncc2Cl)c(C)c1 [Compound A-60, 6-(5′-chloro-3,5-dimethyl-2,4′-bipyridin-2′-yl)-N-isopropyl-5,6,7,8-tetrahydro-pyrido-[4,3-d]pyrimidin-2-amine]
14.1 | Cc1cnc(-c2cc(N3CCc4nc(NC(C)(C)C)ncc4C3)ncc2Cl)c(C)c1 [Compound A-61, N-tert-butyl-6-(5′-chloro-3,5-dimethyl-2,4′-bipyridin-2′-yl)-5,6,7,8-tetrahydro-pyrido-[4,3-d]pyrimidin-2-amine]
51.1 | Cc1cnc(-c2cc(N3CCc4nc(Nc5ccccc5)ncc4C3)ncc2Cl)c(C)c1 [Compound A-62, 6-(5′-chloro-3,5-dimethyl-2,4′-bipyridin-2′-yl)-N-phenyl-5,6,7,8-tetrahydro-pyrido-[4,3-d]pyrimidin-2-amine]
85.1 | Cc1cnc(-c2cc(N3CCc4nc(N5CCC(O)C5)ncc4C3)ncc2Cl)c(C)c1 (stereo not shown) [Compound A-66, 1-(6-(5′-chloro-3,5-dimethyl-2,4′-bipyridin-2′-yl)-5,6,7,8-tetrahydro-pyrido-[4,3-d]pyrim-idin-2-yl)pyrrolidin-3-ol]
